ChEMBL document CHEMBL6109103, “Dodecapeptides derived from human cathelicidin with potent activity against carbapenem-resistant Acinetobacter baumannii” (Eur J Med Chem, 2025)
Converted amounts (≈) assume the structure as drawn. The source made the active and inactive calls. No cut-off for these calls is given here. Positions of bridges follow the written chain, without caps; N, C: chain ends. Non-standard residues stand in square brackets, D forms with d. Residues, ends and D or L forms follow the SMILES beside them. S5 = C=CCCC[C@](C)(N)C(=O)O

Experiments:
Acinetobacter baumannii [1] = assay: Antibacterial activity against carbapenem-resistant Acinetobacter baumannii clinical isolate 3 assessed as inhibition of bacterial growth incubated for 24 hrs by broth dilution assay; format: functional
Acinetobacter baumannii [2] = assay: Antibacterial activity against carbapenem-resistant Acinetobacter baumannii clinical isolate 7 assessed as inhibition of bacterial growth incubated for 24 hrs by broth dilution assay; format: functional
Acinetobacter baumannii [3] = assay: Synergistic antibacterial activity against carbapenem-resistant Acinetobacter baumannii clinical isolate 6 in presence of tetracycline by microdilution checkerboard assay; format: functional, organism-based
[4] = Toxicity in BALB/c mouse assessed as lung damage at 64 mg/kg, ip measured for 3 days by H and E staining based analysis; format: organism-based; conditions: in vivo, 72 h, time 3 day
Pseudomonas aeruginosa = assay: Antibacterial activity against human Pseudomonas aeruginosa assessed as inhibition of bacterial growth; format: functional, organism-based
Staphylococcus aureus [5] = assay: Antibacterial activity against Methicillin-resistant Staphylococcus aureus ATCC 43300 assessed as inhibition of bacterial growth incubated for 24 hrs by broth dilution assay; format: functional
[6] = Binding affinity to gram negative bacterial lipid II assessed as dissociation constant by BLI analysis; parameters: species or system Bacteria
Acinetobacter baumannii [7] = assay: Antibacterial activity against carbapenem-resistant Acinetobacter baumannii clinical isolate 5 assessed as inhibition of bacterial growth incubated for 24 hrs by broth dilution assay; format: functional
[8] = Toxicity in BALB/c mouse assessed as spleen damage at 64 mg/kg, ip measured for 3 days by H and E staining based analysis; format: organism-based; conditions: in vivo, 72 h, time 3 day
Acinetobacter baumannii [9] = assay: Synergistic antibacterial activity against carbapenem-resistant Acinetobacter baumannii clinical isolate 6 in presence of CTX by microdilution checkerboard assay; format: functional, organism-based
[10] = Toxicity in BALB/c mouse assessed as kidney damage at 64 mg/kg, ip measured for 3 days by H and E staining based analysis; format: organism-based; conditions: in vivo, 72 h, time 3 day
Acinetobacter baumannii [11] = assay: Antibacterial activity against carbapenem-resistant Acinetobacter baumannii clinical isolate 6 infected in BALB/c mouse assessed as survival rate at 1.25 mg/kg, NAS administered once a day for 3 days; format: functional; conditions: 72 h, time 3 day
[12] = Toxicity in BALB/c mouse assessed as liver damage at 64 mg/kg, ip measured for 3 days by H and E staining based analysis; format: organism-based; conditions: in vivo, 72 h, time 3 day
HaCaT = assay: Cytotoxicity against human HaCaT cells assessed as cell death up to 100 microg/ml measured upto 24 hrs; format: toxicity, cell-based; conditions: dose < 100 µg/ml
[13] = Hemolytic activity at mouse RBC assessed as hemolysis; format: toxicity, cell-based, Erythrocyte; conditions: mouse red blood cells, read-out: Activity
Acinetobacter baumannii [14] = assay: Antibacterial activity against carbapenem-resistant Acinetobacter baumannii clinical isolate 2 assessed as inhibition of bacterial growth incubated for 24 hrs by broth dilution assay; format: functional
Acinetobacter baumannii [15] = assay: Antibacterial activity against carbapenem-resistant Acinetobacter baumannii clinical isolate 6 assessed as inhibition of bacterial growth incubated for 24 hrs by broth dilution assay; format: functional
Acinetobacter baumannii [16] = assay: Antibacterial activity against multidrug-resistant Acinetobacter baumannii assessed as inhibition of bacterial growth incubated for 24 hrs by broth dilution assay; format: functional
[17] = Toxicity in BALB/c mouse assessed as heart damage at 64 mg/kg, ip measured for 3 days by H and E staining based analysis; format: organism-based; conditions: in vivo, 72 h, time 3 day
Acinetobacter baumannii [18] = assay: Antibacterial activity against carbapenem-resistant Acinetobacter baumannii clinical isolate 1 assessed as inhibition of bacterial growth incubated for 24 hrs by broth dilution assay; format: functional
Acinetobacter baumannii [19] = assay: Induction of morphological changes in carbapenem-resistant Acinetobacter baumannii at 6.25 microg/ml measured for 24 hrs by SEM analysis; format: functional, organism-based; conditions: dose 6.25 µg/ml
[20] = Toxicity in BALB/c mouse assessed as animal survival at 1.25 mg/kg, NAS measured for 5 days; format: organism-based; conditions: in vivo, inhaled or intranasal, time 5 day
Acinetobacter baumannii [21] = assay: Antibacterial activity against Acinetobacter baumannii ATCC 19606 assessed as inhibition of bacterial growth incubated for 24 hrs by broth dilution assay; format: functional
[22] = Toxicity in BALB/c mouse assessed as animal survival at 4 to 64 mg/kg, ip measured for 5 days; format: organism-based; conditions: in vivo, 120 h, dose 4-64 mg/kg, time 5 day
Acinetobacter baumannii [23] = assay: Antibacterial activity against carbapenem-resistant Acinetobacter baumannii clinical isolate 4 assessed as inhibition of bacterial growth incubated for 24 hrs by broth dilution assay; format: functional
Staphylococcus aureus [24] = assay: Antibacterial activity against Staphylococcus aureus […] assessed as inhibition of bacterial growth incubated for 24 hrs by broth dilution assay; format: functional
Escherichia coli = assay: Antibacterial activity against human Escherichia coli assessed as inhibition of bacterial growth; format: functional, organism-based
Lipoteichoic acid = assay: Binding affinity to […] bacterial Lipoteichoic acid assessed as dissociation constant by BLI analysis; parameters: species or system Bacteria
Acinetobacter baumannii [25] = assay: Antibacterial activity against carbapenem-resistant Acinetobacter baumannii clinical isolate 8 assessed as inhibition of bacterial growth incubated for 24 hrs by broth dilution assay; format: functional
proteinase K [26] = assay: Proteolytic stability assessed as proteinase K (unknown origin)-mediated drug degradation at 500 microg/ml measured for 20 mins by LC-MS analysis; format: ADME, Homo sapiens; conditions: at 500 µg/mL, read-out: Drug degradation
proteinase K [27] = assay: Proteolytic stability assessed as proteinase K (unknown origin)-mediated drug degradation measured for 20 mins by LC-MS analysis; format: ADME, Homo sapiens; conditions: read-out: Drug degradation
Acinetobacter baumannii [28] = assay: Antibacterial activity against carbapenem-resistant Acinetobacter baumannii clinical isolate 6 assessed as bacterial killing at 3.16 microg/ml measured for 10 to 30 mins in presence of mouse serum; format: functional, organism-based; conditions: dose 3.16 µg/ml, time 10-30 min
Cell membrane [29] = assay: Induction of outer membrane permeabilization in carbapenem-resistant Acinetobacter baumannii clinical isolate 6 at 6.25 to 12.5 microg/ml measured for 1 hr by NPN-dye based assay; conditions: dose 6.25-12.5 µg/ml
Cell membrane [30] = assay: Induction of inner membrane permeabilization in carbapenem-resistant Acinetobacter baumannii clinical isolate 6 at 6.25 microg/ml measured for 1 hr by NPN-dye based assay; conditions: dose 6.25 µg/ml
Acinetobacter baumannii [31] = assay: Antibacterial activity against carbapenem-resistant Acinetobacter baumannii clinical isolate 6 assessed as bacterial killing at 3.16 microg/ml measured for 1 hr in presence of NaCl; format: functional, organism-based; conditions: dose 3.16 µg/ml
Acinetobacter baumannii [32] = assay: Antibacterial activity against carbapenem-resistant Acinetobacter baumannii clinical isolate 6 assessed as bacterial killing at 3.16 microg/ml measured within 10 mins; format: functional, organism-based; conditions: dose 3.16 µg/ml

| Molecule | MIC (Acinetobacter baumannii [1]) | MIC (Acinetobacter baumannii [2]) | Activity (Acinetobacter baumannii [3]) | Activity [4] | Activity (Pseudomonas aeruginosa) | MIC (Staphylococcus aureus [5]) | Kd [6] | MIC (Acinetobacter baumannii [7]) | Activity [8] | Activity (Acinetobacter baumannii [9]) | Activity [10] | survival at 1.25 mg/kg (Acinetobacter baumannii [11]) | Activity [12] | Activity (HaCaT) | hemolysis [13] | MIC (Acinetobacter baumannii [14]) | MIC (Acinetobacter baumannii [15]) | MIC (Acinetobacter baumannii [16]) | Activity [17] | MIC (Acinetobacter baumannii [18]) | also measured |
| --- | --- | --- | --- | --- | --- | --- | --- | --- | --- | --- | --- | --- | --- | --- | --- | --- | --- | --- | --- | --- | --- |
| CC[C@H](C)[C@H](NC(=O)[C@H](CCCNC(=N)N)NC(=O)[C@@H](N)CCCCN)C(=O)N[C@@]1(C)CCC/C=C\CCC[C@@](C)(C(=O)N[C@H](C(=O)N[C@@H](Cc2ccccc2)C(=O)N[C@@H](CC(C)C)C(=O)N[C@@H](CCCNC(=N)N)C(=O)O)[C@@H](C)CC)NC(=O)[C@H]([C@@H](C)CC)NC(=O)[C@H](CCCNC(=N)N)NC(=O)[C@H](CCCNC(=N)N)NC1=O (H-KRI[S5]RRI[S5]IFLR-OH; staple (Z) 4-8) | 5 µg/mL (≈ 3.08 µM) | 20 µg/mL (≈ 12.3 µM) | Active | Non-toxic | Active | 80 µg/mL (≈ 49.3 µM) | 5.9 nM | 5 µg/mL (≈ 3.08 µM) | Non-toxic | Active | Non-toxic | 50% | Non-toxic | Non-toxic | < 1% | 10 µg/mL (≈ 6.17 µM) | 2.5 µg/mL (≈ 1.54 µM) | 5 µg/mL (≈ 3.08 µM) | Non-toxic | 5 µg/mL (≈ 3.08 µM) | Activity (Acinetobacter baumannii [19]): Active; survival at 120 h [20]: 70%; MIC (Acinetobacter baumannii [21]): 5 µg/mL (≈ 3.08 µM); Activity [22]: Non-toxic; MIC (Acinetobacter baumannii [23]): 10 µg/mL (≈ 6.17 µM); MIC (Staphylococcus aureus [24]): 80 µg/mL (≈ 49.3 µM); Activity (Escherichia coli): Active; Kd (Lipoteichoic acid): 48.9 nM; MIC (Acinetobacter baumannii [25]): 5 µg/mL (≈ 3.08 µM); metabolised at 20 min, 500 microg/ml (proteinase K [26]): 17.8% |
| H-KRIVRRIKIFLR-OH | 5 µg/mL | 10 µg/mL | Active | Non-toxic | Active | 80 µg/mL | 7.14 nM | 10 µg/mL | Non-toxic | Active | Non-toxic | 40% | Non-toxic | Non-toxic | < 1% | 20 µg/mL | 2.5 µg/mL | 5 µg/mL | Non-toxic | 10 µg/mL | metabolised at 20 min (proteinase K [27]): 89.4%; Activity (Acinetobacter baumannii [28]): Active; Activity (Cell membrane [29]): Active; Activity (Cell membrane [30]): Active; Activity (Acinetobacter baumannii [19]): Active; survival at 120 h [20]: 30%; MIC (Acinetobacter baumannii [21]): 10 µg/mL; Activity (Acinetobacter baumannii [31]): Active; Activity (Acinetobacter baumannii [32]): Active; Activity [22]: Non-toxic; MIC (Acinetobacter baumannii [23]): 5 µg/mL; MIC (Staphylococcus aureus [24]): 80 µg/mL; Activity (Escherichia coli): Active; Kd (Lipoteichoic acid): 48.3 nM; MIC (Acinetobacter baumannii [25]): 10 µg/mL |
